# Test results: ChEMBL document CHEMBL4477231, “Design, synthesis and antiproliferative activity studies of novel dithiocarbamate-chalcone derivates” (Bioorg Med Chem Lett, 2016)
# Calls of active or inactive are those of the source. The rule behind the calls is not given here.
# Experiments:
# SK-N-SH [1] = assay: Cytotoxicity against human SK-N-SH cells assessed as cell growth inhibition after 72 hrs by MTT assay; format: functional, cell-based
# MGC-803 = assay: Cytotoxicity against human MGC803 cells assessed as cell growth inhibition after 72 hrs by MTT assay; format: functional, cell-based; settings: MGC-803, 72 h
# ECa-109 cell line = assay: Cytotoxicity against human EC109 cells assessed as cell growth inhibition after 72 hrs by MTT assay; format: functional, cell-based; settings: ECa-109, 72 h
# GES1 = assay: Cytotoxicity against human GES-1 cells assessed as reduction in cell viability after 72 hrs by MTT assay; format: cell-based; settings: GES1, 72 h
# SK-N-SH [2] = assay: Cell cycle arrest in human SK-N-SH cells assessed as accumulation at G0/G1 phase at 5 uM after 48 hrs by propidium iodide staining based flow cytometry (reference value: 54.35 %); format: functional
# SK-N-SH [3] = assay: Induction of apoptosis in human SK-N-SH cells at 5 uM after 48 hrs by Annexin V-FITC/propidium iodide staining based flow cytometry relative to control; format: functional
# SK-N-SH [4] = assay: Induction of apoptosis in human SK-N-SH cells assessed as formation of apoptotic bodies at 5 uM after 24 to 48 hrs by Hoechst 33258 staining based fluorescence microscopy; format: functional, cell-based
# SK-N-SH [5] = assay: Cell cycle arrest in human SK-N-SH cells assessed as accumulation at S phase at 2.5 uM after 24 hrs by propidium iodide staining based flow cytometry (reference value: 30.91 %); format: functional
# SK-N-SH [6] = assay: Induction of apoptosis in human SK-N-SH cells assessed as increase in p53 expression at 2.5 to 5 uM after 48 hrs; format: functional, cell-based
# SK-N-SH [7] = assay: Cell cycle arrest in human SK-N-SH cells assessed as accumulation at S phase at 5 uM after 48 hrs by propidium iodide staining based flow cytometry (reference value: 27.41 %); format: functional
# SK-N-SH [8] = assay: Cell cycle arrest in human SK-N-SH cells assessed as accumulation at G2/M phase at 5 uM after 24 hrs by propidium iodide staining based flow cytometry (reference value: 17 %); format: functional
# SK-N-SH [9] = assay: Cell cycle arrest in human SK-N-SH cells assessed as accumulation at G0/G1 phase at 2.5 uM after 24 hrs by propidium iodide staining based flow cytometry (reference value: 50.26 %); format: functional
# SK-N-SH [10] = assay: Cell cycle arrest in human SK-N-SH cells assessed as accumulation at G2/M phase at 2.5 uM after 24 hrs by propidium iodide staining based flow cytometry (reference value: 17 %); format: functional
# SK-N-SH [11] = assay: Induction of apoptosis in human SK-N-SH cells at 5 uM by Annexin V-FITC/propidium iodide staining based flow cytometry; format: functional, cell-based; settings: TDE = time-dependent effect
# SK-N-SH [12] = assay: Cell cycle arrest in human SK-N-SH cells assessed as accumulation at G0/G1 phase at 5 uM after 24 hrs by propidium iodide staining based flow cytometry (reference value: 50.26 %); format: functional
# SK-N-SH [13] = assay: Cell cycle arrest in human SK-N-SH cells assessed as accumulation at S phase at 5 uM after 24 hrs by propidium iodide staining based flow cytometry (reference value: 30.91 %); format: functional
# SK-N-SH [14] = assay: Induction of apoptosis in human SK-N-SH cells at 5 uM after 24 hrs by Annexin V-FITC/propidium iodide staining based flow cytometry relative to control; format: functional
# SK-N-SH [15] = assay: Cell cycle arrest in human SK-N-SH cells assessed as accumulation at S phase at 2.5 uM after 48 hrs by propidium iodide staining based flow cytometry (reference value: 27.41 %); format: functional
# SK-N-SH [16] = assay: Induction of apoptosis in human SK-N-SH cells assessed as chromatin shrinkage at 5 uM after 24 to 48 hrs by Hoechst 33258 staining based fluorescence microscopy; format: functional, cell-based
# SK-N-SH [17] = assay: Cell cycle arrest in human SK-N-SH cells assessed as accumulation at G0/G1 phase at 2.5 uM after 48 hrs by propidium iodide staining based flow cytometry (reference value: 54.35 %); format: functional
# SK-N-SH [18] = assay: Cell cycle arrest in human SK-N-SH cells assessed as accumulation at G2/M phase at 5 uM after 48 hrs by propidium iodide staining based flow cytometry (reference value: 18.35 %); format: functional
# SK-N-SH [19] = assay: Cell cycle arrest in human SK-N-SH cells assessed as accumulation at G2/M phase at 2.5 uM after 48 hrs by propidium iodide staining based flow cytometry (reference value: 18.35 %); format: functional
# SK-N-SH [20] = assay: Induction of apoptosis in human SK-N-SH cells assessed as reduction in procaspase-3 level at 2.5 to 5 uM after 48 hrs; format: functional, cell-based
# SK-N-SH [21] = assay: Induction of apoptosis in human SK-N-SH cells assessed as round cells at 5 uM after 24 to 48 hrs by Hoechst 33258 staining based fluorescence microscopy; format: functional, cell-based
compound,measurement,setting,value
O=C(/C=C/c1ccc(Cl)cc1)c1ccc(OCCSC(=S)N2CCOCC2)cc1,IC50,SK-N-SH [1],11.7 µM
same,IC50,MGC-803,11.5 µM
same,IC50,ECa-109 cell line,15.4 µM
COc1cc(/C=C/C(=O)c2ccc(OCCSC(=S)N3CCCCC3)cc2)cc(OC)c1OC,IC50,SK-N-SH [1],48.4 µM
same,IC50,MGC-803,41.3 µM
same,IC50,ECa-109 cell line,38.9 µM
COc1cc(/C=C/C(=O)c2ccc(OCCSC(=S)N3CCN(C)CC3)cc2)cc(OC)c1OC,IC50,SK-N-SH [1],2.46 µM
same,IC50,GES1,> 64 µM
same,IC50,MGC-803,8.28 µM
same,IC50,ECa-109 cell line,10 µM
O=C(/C=C/c1cccs1)c1ccc(OCCCSC(=S)N2CCCCC2)cc1,IC50,SK-N-SH [1],38.2 µM
same,IC50,MGC-803,41.3 µM
same,IC50,ECa-109 cell line,36.4 µM
CN1CCN(C(=S)SCCCOc2ccc(C(=O)/C=C/c3cc(Cl)cc(Cl)c3)cc2)CC1,IC50,SK-N-SH [1],24.6 µM
same,IC50,MGC-803,19.4 µM
same,IC50,ECa-109 cell line,12.4 µM
O=C(/C=C/c1ccc(Cl)cc1)c1ccc(OCCSC(=S)N2CCCCC2)cc1,IC50,SK-N-SH [1],27.4 µM
same,IC50,MGC-803,12.8 µM
same,IC50,ECa-109 cell line,26.1 µM
O=C(/C=C/c1ccc(Cl)cc1)c1ccc(OCCCSC(=S)N2CCCC2)cc1,IC50,SK-N-SH [1],19.1 µM
same,IC50,MGC-803,34.5 µM
same,IC50,ECa-109 cell line,18.6 µM
O=C(/C=C/c1cccs1)c1ccc(OCCSC(=S)N2CCCC2)cc1,IC50,SK-N-SH [1],19.1 µM
same,IC50,MGC-803,32.4 µM
same,IC50,ECa-109 cell line,18.2 µM
CN1CCN(C(=S)SCCCOc2ccc(C(=O)/C=C/c3cc(F)cc(F)c3)cc2)CC1,IC50,SK-N-SH [1],13.2 µM
same,IC50,MGC-803,16.3 µM
same,IC50,ECa-109 cell line,14.5 µM
CN1CCN(C(=S)SCCCOc2ccc(C(=O)/C=C/c3ccc(Cl)cc3)cc2)CC1,IC50,SK-N-SH [1],31.9 µM
same,IC50,MGC-803,29.4 µM
same,IC50,ECa-109 cell line,34.2 µM
O=C(/C=C/c1ccc(Cl)cc1)c1ccc(OCCCSC(=S)N2CCCCC2)cc1,IC50,SK-N-SH [1],32.2 µM
same,IC50,MGC-803,56.8 µM
same,IC50,ECa-109 cell line,42.6 µM
COc1cc(/C=C/C(=O)c2ccc(OCCSC(=S)N3CCCC3)cc2)cc(OC)c1OC,IC50,SK-N-SH [1],12.1 µM
same,IC50,MGC-803,31.7 µM
same,IC50,ECa-109 cell line,10.7 µM
COc1cc(/C=C/C(=O)c2ccc(OCCCSC(=S)N3CCN(C)CC3)cc2)cc(OC)c1OC,Activity,SK-N-SH [2],74.85%
same,Activity,SK-N-SH [3],36.8%
same,Activity,SK-N-SH [4],Active
same,IC50,SK-N-SH [1],2.03 µM
same,Activity,SK-N-SH [5],31.19%
same,Activity,SK-N-SH [6],Active
same,Activity,SK-N-SH [7],14.22%
same,Activity,SK-N-SH [8],6.11%
same,Activity,SK-N-SH [9],50.03%
same,Activity,SK-N-SH [10],18.55%
same,IC50,GES1,> 64 µM
same,Activity,SK-N-SH [11],Tde
same,IC50,MGC-803,7.37 µM
same,Activity,SK-N-SH [12],68.19%
same,Activity,SK-N-SH [13],25.26%
same,Activity,SK-N-SH [14],20.6%
same,Activity,SK-N-SH [15],26.02%
same,Activity,SK-N-SH [16],Active
same,IC50,ECa-109 cell line,7.43 µM
same,Activity,SK-N-SH [17],59.64%
same,Activity,SK-N-SH [18],10.54%
same,Activity,SK-N-SH [19],13.81%
same,Activity,SK-N-SH [20],Active
same,Activity,SK-N-SH [21],Active
COc1ccc(/C=C/C(=O)c2ccc(OCCCSC(=S)N3CCN(C)CC3)cc2)cc1,IC50,SK-N-SH [1],29.5 µM
same,IC50,MGC-803,19.4 µM
same,IC50,ECa-109 cell line,> 100 µM
O=C(/C=C/c1cccnc1)c1ccc(OCCCSC(=S)N2CCCC2)cc1,IC50,SK-N-SH [1],24.5 µM
same,IC50,MGC-803,19.5 µM
same,IC50,ECa-109 cell line,29.8 µM
O=c1[nH]cc(F)c(=O)[nH]1 [FLUOROURACIL],IC50,SK-N-SH [1],9.84 µM
same,IC50,MGC-803,7.21 µM
O=C(/C=C/c1ccc(Cl)cc1)c1ccc(OCCSC(=S)N2CCCC2)cc1,IC50,SK-N-SH [1],18.3 µM
same,IC50,MGC-803,47.9 µM
same,IC50,ECa-109 cell line,27.8 µM
COc1cc(/C=C/C(=O)c2ccc(OCCCSC(=S)N3CCCC3)cc2)cc(OC)c1OC,IC50,SK-N-SH [1],12.8 µM
same,IC50,MGC-803,14.5 µM
same,IC50,ECa-109 cell line,11.1 µM
O=C(/C=C/c1cc(F)cc(F)c1)c1ccc(OCCCSC(=S)N2CCCC2)cc1,IC50,SK-N-SH [1],36.1 µM
same,IC50,MGC-803,28.4 µM
same,IC50,ECa-109 cell line,28.8 µM
